Measured values published in ChEMBL document CHEMBL3132861 (Medchemcomm, 2013).

Tests used:
[1] = Antiproliferative activity against human MDA-MB-435 cells by SRB assay
[2] = Inhibition of microtubule depolymerization in rat A10 cells after 18 hrs by immunofluorescence assay; assay type: cell-based
A10 = assay: Inhibition of microtubule depolymerization in rat A10 cells at 75 uM after 18 hrs by immunofluorescence assay; assay type: cell-based

SMILES	IC50 [1] [µM]	EC50 [2] [µM]	pEC50 [2]	inhibition (A10) [%]
CCOC(=O)c1[nH]c(Br)c(-c2cccc3ccccc23)c1Br	3.24	7	5.15	–
CCOC(=O)c1[nH]c(Br)c(-c2ccc(Cl)cc2)c1Br	–	> 75	3.82	–
CCOC(=O)c1[nH]c(Br)c(-c2ccc(Cl)c(Cl)c2)c1Br	–	9.9	5	–
CCOC(=O)c1[nH]c(Br)c(-c2ccc3cc(OCC)ccc3c2)c1Br	1.99	> 75	3.82	–
CCOC(=O)c1[nH]c(Br)c(-c2ccc(C)cc2)c1Br	2.24	> 75	3.82	–
CCOC(=O)c1[nH]c(Br)c(-c2ccc(OC)c(F)c2)c1Br	–	14.1	4.85	–
CCOC(=O)c1[nH]c(Br)c(-c2ccc3c(c2)OCCO3)c1Br	4.36	20.9	4.68	–
CCOC(=O)c1[nH]c(Br)c(-c2cccc(OC)c2)c1Br	–	2.4	5.62	–
CCOC(=O)c1[nH]c(Br)c(-c2ccc(SC)cc2)c1Br	–	18.5	4.73	–
CCOC(=O)c1[nH]c(Br)c(-c2ccc(OC)cc2)c1Br	–	7	5.15	–
CCOC(=O)c1[nH]c(Br)c(-c2c[nH]c3ccccc23)c1Br	1.98	17.8	4.75	–
CCOC(=O)c1[nH]c(Br)c(-c2cc(OC)c(OC)cc2Br)c1Br	2.64	14	4.85	–
CCOC(=O)c1[nH]c(Br)c(-c2ccc(Br)cc2)c1Br	–	94	4.03	40
CCOC(=O)c1[nH]c(Br)c(-c2ccc3c(c2)OCO3)c1Br	–	29.7	4.53	–
CCOC(=O)c1[nH]c(Br)c(-c2ccccc2)c1Br	10.3	> 75	3.82	–
CCOC(=O)c1[nH]c(Br)c(-c2ccc(OC(F)(F)F)cc2)c1Br	–	27.1	4.57	–
CCOC(=O)c1[nH]c(Br)c(-c2cc(OC)c(OC)c(OC)c2)c1Br	12.9	> 75	3.82	–
